Values quoted from earlier work as cited in patent publication US5661161A, “Inhibitors of farnesyl-protein transferase” (Merck & Co., Inc., priority 1995, dated 1997).

Test system: farnesyl-protein transferase
Details: literature; via inhibition of HMG-CoA reductase

Row | Structure (SMILES) | Indirect inhibition of farnesyl-protein transferase in vivo
1 | CC[C@H](C)C(=O)O[C@H]1CCC=C2C=C[C@H](C)[C@H](CC[C@@H]3C[C@@H](O)CC(=O)O3)[C@H]21 [compactin] | Indirect inhibition
2 | CC[C@H](C)C(=O)O[C@H]1C[C@@H](C)C=C2C=C[C@H](C)[C@H](CC[C@@H]3C[C@@H](O)CC(=O)O3)[C@H]21 [lovastatin] | Indirect inhibition
